Test [1] has as its target HRAS wild-type protein (Homo sapiens, UniProt P01112). The test is described as follows: Binding to HRAS by surface plasmon resonance (SPR), KD and KD ratio to KRAS. The essentials: (§1)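 Single-cycle kinetics on GDP-loaded biotin-Avi RAS captured to ~100–300 RU; 75 s ascending injections, 100 µL/min, 30°C. HBS pH 7.4 + 10 mM MgCl2/10 µM GDP/4% DMSO. 1:1 fit, KD.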
For orientation: Surface plasmon resonance follows binding to a sensor surface in real time, without labels.

The test system of test [2] is human lung cancer strain NCI-H441. The class given is cell-based. The essentials: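 Proliferation was scored by […] measured after the reagent was added to cultures kept at 37°C in 5% carbon dioxide.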
Test [3] has as its target GDP-bound NRAS wild-type protein (Homo sapiens, UniProt P01111). Put plainly: Binding to NRAS by surface plasmon resonance (SPR), KD and KD ratio to KRAS. The method, boiled down: as §1
Setting [4] is: ratio of KD for HRAS wild-type protein to KD for KRAS.
Where [5] appears, read: ratio of KD for GDP-bound NRAS wild-type protein to KD for KRAS.
Where [6] appears, read: ratio of the KD value with respect to HRAS wild-type protein to the KD value with respect to KRAS.
The mark [7] stands for this setting: ratio of the KD value with respect to GDP-bound NRAS wild-type protein to the KD value with respect to KRAS.

These results are taken from patent EP4603105A1, “PHARMACEUTICAL COMPOSITION CONTAINING CYCLIC COMPOUND HAVING SELECTIVE KRAS INHIBITORY EFFECT AGAINST HRAS AND NRAS” (CHUGAI SEIYAKU KABUSHIKI KAISHA, priority 2022, dated 2024).

Where a SMILES comes first, the peptide text is derived from it. Bridges are numbered along the chain shown (N, C = ends). [ ]: non-standard residue; d: D form. The star is where a group is joined. hPhe(3,5-F2-4-CF3) = N[C@@H](CCc1cc(F)c(C(F)(F)F)c(F)c1)C(=O)O; hPhe(3-Cl-4-CF3) = N[C@@H](CCc1ccc(C(F)(F)F)c(Cl)c1)C(=O)O; NPrPhe(4-CF3) = CCCN[C@@H](Cc1ccc(C(F)(F)F)cc1)C(=O)O; hPhe(3,4-Cl2) = N[C@@H](CCc1ccc(Cl)c(Cl)c1)C(=O)O; Pip(4,4-F2) = O=C(O)[C@@H]1CC(F)(F)CCN1; NMeGly(cPent) = CN[C@H](C(=O)O)C1CCCC1; NMeD = CN[C@@H](CC(=O)O)C(=O)O; NMeL = CN[C@@H](CC(C)C)C(=O)O; αMeL = CC(C)C[C@](C)(N)C(=O)O; Morpholide = C1CN(*)CCO1; NMeA = CN[C@@H](C)C(=O)O; Ac5c = NC1(C(=O)O)CCCC1; Aze = O=C(O)[C@@H]1CCN1; Sar = CNCC(=O)O

Chain of HRAS wild-type protein (P01112 whole entry): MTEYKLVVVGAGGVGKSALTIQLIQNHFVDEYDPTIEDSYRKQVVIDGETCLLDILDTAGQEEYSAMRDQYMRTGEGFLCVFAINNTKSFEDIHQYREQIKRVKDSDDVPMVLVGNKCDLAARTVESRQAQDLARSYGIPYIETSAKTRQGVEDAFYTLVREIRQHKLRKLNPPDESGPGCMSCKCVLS
Chain of GDP-bound NRAS wild-type protein (P01111 whole entry): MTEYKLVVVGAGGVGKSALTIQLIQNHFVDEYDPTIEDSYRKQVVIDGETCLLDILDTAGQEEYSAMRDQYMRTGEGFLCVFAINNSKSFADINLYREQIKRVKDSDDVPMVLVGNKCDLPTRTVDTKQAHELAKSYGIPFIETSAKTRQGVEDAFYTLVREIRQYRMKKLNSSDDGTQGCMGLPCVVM

As for `CCCN1C(=O)[C@@H]2CCN2C(=O)[C@H](C)N(C)C(=O)[C@H]([C@@H](C)CC)NC(=O)[C@H](CC(C)C)N(C)C(=O)C[C@@H](C(=O)N2CCOCC2)N(C)C(=O)[C@H](C2CCCC2)N(C)C(=O)C2(CCCC2)NC(=O)[C@@H]2CCCN2C(=O)[C@H](CCc2ccc(Cl)c(Cl)c2)NC(=O)CN(C)C(=O)[C@@H]1Cc1ccc(C(F)(F)F)cc1` [PP0227] ([NMeL]I[NMeA][Aze][NPrPhe(4-CF3)][Sar][hPhe(3,4-Cl2)]P[Ac5c][NMeGly(cPent)][NMeD]-Morpholide; lactam N-11), the “HRAS /KRAS” value in test [1] (setting [4]) was “B (a compound having 3 or more and less than 10 is denoted as B)”. In addition, the midpoint of inhibition in test [2], the IC50, lay at 4.1 nM. The “NRAS /KRAS” value in test [3] (setting [5]) is “C (A compound having a KD ratio of 0.1 or more and less than 3 is denoted as C)”.
Turning to `CC[C@H](C)[C@@H]1NC(=O)[C@H](CC(C)C)N(C)C(=O)C[C@@H](C(=O)N(C)C)N(C)C(=O)[C@H](C2CCCC2)N(C)C(=O)C2(CCC2)NC(=O)[C@@H]2CC(F)(F)CN2C(=O)[C@H](CCc2ccc(C(F)(F)F)c(Cl)c2)NC(=O)CN(C)C(=O)[C@H](Cc2ccc(F)cc2)N2CCCCC[C@@H](C2=O)N(C)C(=O)CN(C)C1=O` [PP0973], in test [1] (setting [4]), the “HRAS /KRAS” value was “B (a compound having 3 or more and less than 10 is denoted as B)”. In test [2], half-maximal inhibition (IC50) required 11.6 nM. Moreover, the “NRAS /KRAS” value in test [3] (setting [5]) was “B (a compound having 3 or more and less than 10 is denoted as B)”.
As to `CCO[C@@H]1C[C@H]2C(=O)NC3(CCC3)C(=O)N(C)[C@@H](C3CCCC3)C(=O)N(C)[C@H](C(=O)N(C)C)CC(=O)N(C)[C@@H](C)C(=O)N[C@@H]([C@H](C)CC)C(=O)N(C)CC(=O)N(C)[C@H]3CCCCN(C3=O)[C@@H](Cc3ccc(C(F)(F)F)cc3)C(=O)N(C)CC(=O)N[C@@H](CCc3cc(F)c(C(F)(F)F)c(F)c3)C(=O)N2C1` [PP0730], the “HRAS /KRAS” value in test [1] (setting [6]) is “C (A compound having a KD ratio of 0.1 or more and less than 3 is denoted as C)”. In test [2], the IC50 (usually the concentration that gives 50% inhibition) turned out to be 29.6 nM. Moreover, in test [3] (setting [7]), the “NRAS /KRAS” value is “C (A compound having a KD ratio of 0.1 or more and less than 3 is denoted as C)”.
For the molecule `CCC[C@H]1C(=O)N[C@@H]([C@@H](C)CC)C(=O)N(C)CC(=O)N(C)[C@H]2C/C=C\CCN(C2=O)[C@@H](Cc2ccc(C(F)(F)F)cc2)C(=O)N(C)CC(=O)N[C@@H](CCc2ccc3sc(C)c(C)c3c2)C(=O)N2C[C@H](OCC)C[C@H]2C(=O)NC2(CC(C)(C)C2)C(=O)N(C)[C@@H](C2CCCC2)C(=O)N(C)[C@H](C(=O)N(C)C)CC(=O)N1C` [PP2889], the “HRAS /KRAS” value in test [1] (setting [4]) was “A (a compound having 10 or more and less than 20 is denoted as A)”. This molecule also yielded an IC50 in test [2] of 20.9 nM. In test [3] (setting [5]), the “NRAS /KRAS” value was “A (a compound having 10 or more and less than 20 is denoted as A)”.
Take `CCO[C@@H]1C[C@H]2C(=O)NC3(CCC3)C(=O)N(C)[C@@H](C3CCCC3)C(=O)N(C)[C@H](C(=O)N3CCOCC3)CC(=O)N(CC)[C@@H](CC(C)C)C(=O)N[C@@H]([C@@H](C)CC)C(=O)N(C)CC(=O)N(C)[C@H]3CC(C)=CCN(C3=O)[C@@H](Cc3ccc(C(F)(F)F)cc3)C(=O)N(C)CC(=O)N[C@@H](CCc3cc(F)c(C(F)(F)F)c(F)c3)C(=O)N2C1` [PP1044]: the “HRAS /KRAS” value in test [1] (setting [4]) was “C (A compound having a KD ratio of 0.1 or more and less than 3 is denoted as C)”. In test [2], this molecule yielded a concentration for half-maximal inhibition (IC50) of 44.1 nM. In addition, the “NRAS /KRAS” value in test [3] (setting [5]) was “C (A compound having a KD ratio of 0.1 or more and less than 3 is denoted as C)”.
`CCCN1C(=O)CN(C)C(=O)CN(C)C(=O)[C@H]([C@@H](C)CC)NC(=O)[C@H](CC(C)C)N(C)C(=O)C[C@@H](C(=O)N(C)C)N(C)C(=O)[C@H](C2CCCC2)N(C)C(=O)[C@](C)(CC(C)C)NC(=O)[C@@H]2CCCN2C(=O)[C@H](CCc2cc(F)c(C(F)(F)F)c(F)c2)NC(=O)CN(C)C(=O)[C@@H]1Cc1ccc(C(F)(F)F)cc1` [PP0738] ([NMeL]I[Sar][Sar][NPrPhe(4-CF3)][Sar][hPhe(3,5-F2-4-CF3)]P[αMeL][NMeGly(cPent)][NMeD]-NMe2; lactam N-11): the “HRAS /KRAS” value in test [1] (setting [6]) was “B (a compound having 3 or more and less than 10 is denoted as B)”. In test [2], this molecule had an IC50 of 99.2 nM. Also, the “NRAS /KRAS” value in test [3] (setting [7]) is “B (a compound having 3 or more and less than 10 is denoted as B)”.
For the molecule `CCCN1C(=O)[C@@H]2CCN2C(=O)[C@H](C)N(C)C(=O)[C@H]([C@@H](C)CC)NC(=O)[C@H](CC(C)C)N(C)C(=O)C[C@@H](C(=O)N2CCOCC2)N(C)C(=O)[C@H](C2CCCC2)N(C)C(=O)C2(CCCC2)NC(=O)[C@@H]2CC(F)(F)CCN2C(=O)[C@H](CCc2ccc(C(F)(F)F)c(Cl)c2)NC(=O)CN(C)C(=O)[C@@H]1Cc1ccc(C(F)(F)F)cc1` [PP0285] ([NMeL]I[NMeA][Aze][NPrPhe(4-CF3)][Sar][hPhe(3-Cl-4-CF3)][Pip(4,4-F2)][Ac5c][NMeGly(cPent)][NMeD]-Morpholide; lactam N-11), the “HRAS /KRAS” value in test [1] (setting [4]) was “B (a compound having 3 or more and less than 10 is denoted as B)”. The molecule also showed a half-maximal inhibitory concentration (IC50) in test [2] of 18.9 nM. Further, in test [3] (setting [5]), the “NRAS /KRAS” value was “C (A compound having a KD ratio of 0.1 or more and less than 3 is denoted as C)”.
`CCO[C@@H]1C[C@H]2C(=O)NC3(CCC3)C(=O)N(C)[C@@H](C3CCCC3)C(=O)N(CC)[C@H](C(=O)N3CCOCC3)CC(=O)N(C)[C@@H](CCOC)C(=O)N[C@@H]([C@@H](C)CC)C(=O)N(C)CC(=O)N(C)[C@H]3CCCCCN(C3=O)[C@@H](Cc3ccc(C(F)(F)F)cc3)C(=O)N(C)CC(=O)N[C@@H](CCc3cc(F)c(C(F)(F)F)c(F)c3)C(=O)N2C1` [PP0947]: in test [1] (setting [4]), the “HRAS /KRAS” value was “A (a compound having 10 or more and less than 20 is denoted as A)”. The midpoint of inhibition in test [2], the IC50, lay at 597 nM. The “NRAS /KRAS” value in test [3] (setting [5]) is “A (a compound having 10 or more and less than 20 is denoted as A)”.
In the case of `CCO[C@@H]1C[C@H]2C(=O)NC3(CCC3)C(=O)N(C)[C@@H](C3CCCC3)C(=O)N(C)[C@H](C(=O)N(C)C)CC(=O)N(C)[C@@H](CC)C(=O)N[C@@H]([C@@H](C)CC)C(=O)N3CC[C@H]3C(=O)N(C)[C@H]3C[C@@H](C)CCN(C3=O)[C@@H](Cc3ccc(C(F)(F)F)cc3)C(=O)N(C)CC(=O)N[C@@H](CCc3cc(F)c(C(F)(F)F)c(F)c3)C(=O)N2C1` [PP1021], in test [1] (setting [4]), the “HRAS /KRAS” value was “B (a compound having 3 or more and less than 10 is denoted as B)”. The molecule further yielded an IC50 in test [2] of 14 nM. The “NRAS /KRAS” value in test [3] (setting [5]) is “C (A compound having a KD ratio of 0.1 or more and less than 3 is denoted as C)”.
Regarding `CC[C@H](C)[C@@H]1NC(=O)[C@H](C)N(C)C(=O)C[C@@H](C(=O)N2CCOCC2)N(C)C(=O)[C@H](C2CCCC2)N(C)C(=O)C2(CCC2)NC(=O)[C@@H]2CC(F)(F)CN2C(=O)[C@H](CCc2cc(F)c(C(F)(F)F)c(F)c2)NC(=O)CN(C)C(=O)[C@H](Cc2ccc(C(F)(F)F)cc2)N2CCCCC[C@@H](C2=O)N(C)C(=O)CN(C)C1=O` [PP0471], the “HRAS /KRAS” value in test [1] (setting [6]) was “B (a compound having 3 or more and less than 10 is denoted as B)”. In test [2], the IC50 is 37.7 nM. In test [3] (setting [7]), the “NRAS /KRAS” value is “B (a compound having 3 or more and less than 10 is denoted as B)”.
On to `CCO[C@@H]1C[C@H]2C(=O)NC3(CCC3)C(=O)N(C)[C@@H](C3CCCC3)C(=O)N(C)[C@H](C(=O)N(C)C)CC(=O)N(C)[C@@H](C(C)C)C(=O)N[C@@H]([C@@H](C)CC)C(=O)N(C)CC(=O)N(C)[C@H]3C/C=C\CCN(C3=O)[C@@H](Cc3ccc(C(F)(F)F)cc3)C(=O)N(C)CC(=O)N[C@@H](CCc3cc(F)c(C(F)(F)F)c(F)c3)C(=O)N2C1` [PP1109], for which the “HRAS /KRAS” value in test [1] (setting [4]) was “B (a compound having 3 or more and less than 10 is denoted as B)”. In test [2], this molecule displayed an IC50 of 17 nM. The “NRAS /KRAS” value in test [3] (setting [5]) was “A (a compound having 10 or more and less than 20 is denoted as A)”.
